Assay: xn = mol fraction of the nth substance listed

CCCCCCO + CCO
Conditions | viscosity [mPa·s]
298.15 K, 101.33 kPa, x2 = 0.1094 | 4.001
298.15 K, 101.33 kPa, x2 = 0.2099 | 3.537
298.15 K, 101.33 kPa, x2 = 0.3973 | 2.828
298.15 K, 101.33 kPa, x2 = 0.5015 | 2.484
298.15 K, 101.33 kPa, x2 = 0.5903 | 2.214
298.15 K, 101.33 kPa, x2 = 0.6925 | 1.894
298.15 K, 101.33 kPa, x2 = 0.8012 | 1.574
298.15 K, 101.33 kPa, x2 = 0.899 | 1.305
303.15 K, 101 kPa, x2 = 0.1433 | 3.364
303.15 K, 101 kPa, x2 = 0.2814 | 2.887
303.15 K, 101 kPa, x2 = 0.487 | 2.241
303.15 K, 101 kPa, x2 = 0.6448 | 1.807
303.15 K, 101 kPa, x2 = 0.7691 | 1.509
303.15 K, 101 kPa, x2 = 0.8692 | 1.28
303.15 K, 101 kPa, x2 = 0.9524 | 1.093

CCOCC + CCO
298.15 K, 101 kPa
Conditions | viscosity [mPa·s]
x1 = 0.1577 | 0.741
x1 = 0.3593 | 0.478
x1 = 0.4569 | 0.4
x1 = 0.5301 | 0.359
x1 = 0.6268 | 0.315
x1 = 0.6925 | 0.29
x1 = 0.7978 | 0.264

CCS + CCO
298.15 K, 101 kPa
Conditions | viscosity [mPa·s]
x1 = 0.026 | 1.048
x1 = 0.072 | 0.9731
x1 = 0.0942 | 0.9305
x1 = 0.1067 | 0.8559
x1 = 0.1258 | 0.8385
x1 = 0.2634 | 0.6525
x1 = 0.2941 | 0.6119
x1 = 0.3753 | 0.5821
x1 = 0.6123 | 0.4083

O=C1CCCCC1 + CCOC(=O)OCC
viscosity [mPa·s], 101 kPa
Conditions | x2 = 0.0898 | x2 = 0.1505 | x2 = 0.2556 | x2 = 0.3587 | x2 = 0.4619 | x2 = 0.5665 | x2 = 0.6701 | x2 = 0.7601 | x2 = 0.8945 | x2 = 0.9487
303.15 K | 1.626 | 1.498 | 1.321 | 1.156 | 1.028 | 0.911 | 0.825 | 0.768 | 0.719 | 0.708
308.15 K | 1.479 | 1.37 | 1.202 | 1.056 | 0.937 | 0.837 | 0.759 | 0.711 | 0.669 | 0.658
313.15 K | 1.375 | 1.274 | 1.116 | 0.981 | 0.873 | 0.784 | 0.714 | 0.668 | 0.626 | 0.617

CC(=O)CC(C)C + CCOCCO
298.15 K, 101.33 kPa
Conditions | viscosity [mPa·s]
x1 = 0.1481 | 1.043
x1 = 0.2727 | 0.943
x1 = 0.3972 | 0.854
x1 = 0.511 | 0.782
x1 = 0.6235 | 0.718
x1 = 0.7252 | 0.664
x1 = 0.824 | 0.617
x1 = 0.8892 | 0.588

CCC(C)N (stereo unspecified) + CCOCCO
308.15 K, 101 kPa
Conditions | viscosity [mPa·s]
x2 = 0.1045 | 0.5211
x2 = 0.208 | 0.6419
x2 = 0.3105 | 0.7668
x2 = 0.412 | 0.8957
x2 = 0.5124 | 1.016
x2 = 0.6188 | 1.13
x2 = 0.7103 | 1.217
x2 = 0.8078 | 1.304
x2 = 0.9043 | 1.385

CCCCCCO + CN1CCCC1=O
viscosity [mPa·s], 100 kPa
Conditions | x1 = 0.1042 | x1 = 0.2 | x1 = 0.302 | x1 = 0.3995 | x1 = 0.4998 | x1 = 0.5996 | x1 = 0.6992 | x1 = 0.7985 | x1 = 0.8981 | x1 = 0.9469
293.15 K | 1.95 | 2.073 | 2.222 | 2.385 | 2.581 | 2.824 | 3.148 | 3.595 | 4.278 | 4.729
298.15 K | 1.786 | 1.894 | 2.02 | 2.157 | 2.321 | 2.521 | 2.791 | 3.158 | 3.711 | 4.048
303.15 K | 1.645 | 1.739 | 1.845 | 1.961 | 2.099 | 2.266 | 2.49 | 2.791 | 3.24 | 3.53
308.15 K | 1.522 | 1.603 | 1.693 | 1.791 | 1.907 | 2.046 | 2.233 | 2.481 | 2.844 | 3.083
313.15 K | 1.412 | 1.483 | 1.56 | 1.643 | 1.741 | 1.857 | 2.012 | 2.217 | 2.51 | 2.708
318.15 K | 1.315 | 1.377 | 1.442 | 1.513 | 1.595 | 1.692 | 1.822 | 1.991 | 2.226 | 2.387

CCCCCCO + CO
298.15 K, 101.33 kPa
Conditions | viscosity [mPa·s]
x2 = 0.1054 | 3.881
x2 = 0.2016 | 3.351
x2 = 0.3144 | 2.778
x2 = 0.4093 | 2.348
x2 = 0.5053 | 1.968
x2 = 0.6027 | 1.615
x2 = 0.7094 | 1.278
x2 = 0.8038 | 1.001
x2 = 0.9022 | 0.7601

CCOCC + CO
101 kPa
Conditions | viscosity [mPa·s]
298.15 K, x1 = 0.115 | 0.4734
298.15 K, x1 = 0.1893 | 0.4296
298.15 K, x1 = 0.2803 | 0.3846
298.15 K, x1 = 0.3957 | 0.3378
298.15 K, x1 = 0.5399 | 0.2953
298.15 K, x1 = 0.7319 | 0.2553
303.16 K, x1 = 0.04 | 0.4893
303.16 K, x1 = 0.09 | 0.4472
303.16 K, x1 = 0.13 | 0.4312
303.16 K, x1 = 0.2 | 0.3881
303.16 K, x1 = 0.27 | 0.3392
303.16 K, x1 = 0.37 | 0.2921
303.16 K, x1 = 0.51 | 0.2772
303.16 K, x1 = 0.67 | 0.2511
303.16 K, x1 = 0.85 | 0.2328

CC(C)CC(C)(C)C + COC(=O)OC
viscosity [mPa·s], 101 kPa
Conditions | x2 = 0.1235 | x2 = 0.2408 | x2 = 0.3521 | x2 = 0.4583 | x2 = 0.5592 | x2 = 0.6554 | x2 = 0.7475 | x2 = 0.8352 | x2 = 0.9193
293.15 K | 0.4747 | 0.4613 | 0.4659 | 0.4672 | 0.4798 | 0.4974 | 0.5114 | 0.5331 | 0.5636
298.15 K | 0.4464 | 0.4356 | 0.44 | 0.4397 | 0.4483 | 0.4637 | 0.4815 | 0.5015 | 0.5303
303.15 K | 0.4224 | 0.4116 | 0.4159 | 0.4143 | 0.4231 | 0.4353 | 0.4517 | 0.4719 | 0.5004
313.15 K | 0.3788 | 0.3706 | 0.373 | 0.3699 | 0.3779 | 0.3929 | 0.4049 | 0.4201 | 0.4475
323.15 K | 0.3424 | 0.3338 | 0.3339 | 0.3344 | 0.3399 | 0.3487 | 0.3616 | 0.376 | 0.3958

C=C(C)[C@@H]1CC=C(C)CC1 + COC(C)(C)C
298.15 K, 101.33 kPa
Conditions | viscosity [mPa·s]
x2 = 0.0694 | 0.807
x2 = 0.1591 | 0.755
x2 = 0.257 | 0.7
x2 = 0.3599 | 0.641
x2 = 0.491 | 0.572
x2 = 0.6599 | 0.486
x2 = 0.7344 | 0.449
x2 = 0.8017 | 0.418
x2 = 0.8714 | 0.386
x2 = 0.9373 | 0.356
x2 = 0.9672 | 0.344

CCC(C)N (stereo unspecified) + COCCO
308.15 K, 101 kPa
Conditions | viscosity [mPa·s]
x2 = 0.1256 | 0.5105
x2 = 0.2443 | 0.6223
x2 = 0.3566 | 0.7355
x2 = 0.463 | 0.8498
x2 = 0.564 | 0.9507
x2 = 0.6599 | 1.015
x2 = 0.7511 | 1.066
x2 = 0.838 | 1.121
x2 = 0.9209 | 1.175

CCOCC + COCCO
298.15 K, 101 kPa
Conditions | viscosity [mPa·s]
x2 = 0.0976 | 0.2661
x2 = 0.1958 | 0.307
x2 = 0.2944 | 0.363
x2 = 0.3936 | 0.4399
x2 = 0.4933 | 0.5713
x2 = 0.5936 | 0.6782
x2 = 0.6944 | 0.8546
x2 = 0.7957 | 1.065
x2 = 0.8976 | 1.33

O=C1CCCCC1 + COCCO
298.15 K, 101 kPa
Conditions | viscosity [mPa·s]
x1 = 0.0793 | 1.432
x1 = 0.1624 | 1.369
x1 = 0.2494 | 1.33
x1 = 0.3408 | 1.325
x1 = 0.4367 | 1.33
x1 = 0.5377 | 1.354
x1 = 0.644 | 1.402
x1 = 0.7562 | 1.504
x1 = 0.8746 | 1.665

CCCCCCCCCCCCCC[P+](CCCCCC)(CCCCCC)CCCCCC.c1nnc[n-]1 + COCCOCCOCCOCCOC
viscosity [mPa·s], 100 kPa
Conditions | x1 = 0.418 | x1 = 0.516 | x1 = 0.61 | x1 = 0.694 | x1 = 0.751 | x1 = 0.804 | x1 = 0.874 | x1 = 0.954
293.15 K | 66 | 111 | 167 | 272 | 360 | 508 | 679 | 994
298.15 K | 53 | 88 | 128 | 208 | 269 | 374 | 491 | 706
303.15 K | – | 70 | 101 | 162 | 205 | 281 | 364 | 512
308.15 K | – | 57 | 81 | 129 | 160 | 217 | 275 | 382
313.15 K | – | – | 66 | 104 | 126 | 169 | 212 | 289
318.15 K | – | – | 54 | 86 | 102 | 135 | 166 | 223
323.15 K | – | – | – | 71 | 83 | 109 | 133 | 176

O=C1CCCCC1 + COc1ccccc1
viscosity [mPa·s], 101.33 kPa
Conditions | x1 = 0.1002 | x1 = 0.2031 | x1 = 0.303 | x1 = 0.402 | x1 = 0.5032 | x1 = 0.6017 | x1 = 0.7 | x1 = 0.7976 | x1 = 0.8978
298.15 K | 1.048 | 1.096 | 1.131 | 1.194 | 1.245 | 1.331 | 1.44 | 1.558 | 1.732
303.15 K | 0.968 | 1.004 | 1.044 | 1.092 | 1.151 | 1.22 | 1.304 | 1.421 | 1.578
308.15 K | 0.905 | 0.93 | 0.966 | 1.012 | 1.06 | 1.127 | 1.207 | 1.306 | 1.444

O=C(OCc1ccccc1)c1ccccc1O + CS(C)=O
303.15 K, 101 kPa
Conditions | viscosity [mPa·s]
x1 = 0.079 | 2.299
x1 = 0.1284 | 2.529
x1 = 0.1867 | 2.933
x1 = 0.2564 | 3.273
x1 = 0.3413 | 3.776
x1 = 0.4467 | 4.342
x1 = 0.5812 | 4.995
